One compound from article PMC8312882, “STING Ligand-Mediated Priming of Functional CD8^+ T Cells Specific for HIV-1-Protective Epitopes from Naive T Cells” (Journal of Virology, 2021) can be followed below.

This test concerns naive T cells in PBMCs of HIV-1-seronegative individuals. As to the kind of experiment: In vitro priming of epitope-specific CD8+ T cells from naive T cells (accelerated dendritic cell coculture, tetramer staining). The test is classed as cell-based, human. On the procedure:
Naive CD8^+ T-cell precursors specific for HLA-B*52:01-restricted, HLA-A*24:02-restricted, or HLA-C*12:02-restricted ones were primed in vitro by using the accelerated dendritic cell coculture protocol ([23], [24], [56], [57]). On day 0, frozen-thawed PBMCs of HIV-1-seronegative individuals having the HLA-B*52:01-C*12:02 haplotype or HLA-A*24:02 were suspended at 5 × 10^6 cells/well in 24-well tissue culture plates containing AIM-V medium (Invitrogen) supplemented with Flt3L (50 ng/ml; R&D Systems). AIM-V medium supplemented with a 10 μM concentration of each peptide and STING ligand 3′3′-cGAMP (10 μg/ml; InvivoGen) was added on day 1, and then FCS was further added to 10% by volume per well on day 2. On day 10, the cells were collected and then stained with epitope-specific tetramers.
HLA-B*52:01-RI8, -MI8, -SI8, or -WV8 peptide tetrameric complexes (tetramers) and HLA-A*24:02-RF10, HLA-C*12:02-IY11, -MY9, or -RL9 complexes were generated as previously described ([58]). CD8^+ T cells specific for a given epitope were stained with phycoerythrin (PE)-conjugated epitope-specific tetramers at 37°C for 30 min. The cells were then washed twice with RPMI 1640 medium containing 5% FCS (R5), followed by staining with allophycocyanin (APC)-conjugated anti-CD8 MAb (Dako, Denmark) and 7-aminoactinomycin D (7-AAD; BD Pharmingen) at 4°C for 30 min. Finally, the cells were washed twice with R5 and then analyzed by using a FACS Canto II. Primed T cells unstained with tetramer were used as a negative control to determine gating of the tetramer^+ population. The tetramer^+ population was determined based on the gating of the negative control ([…] of tetramer^+ cells).

Where [1] appears, read: HIV-1-uninfected individuals having HLA-B*52:01-C*12:02 haplotype.

Take `Nc1nc2c(ncn2[C@@H]2O[C@@H]3COP(=O)(O)O[C@H]4[C@@H](O)[C@H](n5cnc6c(N)ncnc65)O[C@@H]4COP(=O)(O)O[C@H]3[C@H]2O)c(=O)[nH]1` [3′3′-cGAMP]: under setting [1], the “priming of CD8+ T cells specific for HLA-B*52:01-restricted epitopes from naive T cells” value was “effectively primed CD8^+ T cells specific for 3 of 4 HLA-B*52:01-restricted epitopes” and the “priming of CD8+ T cells specific for HLA-C*12:02-restricted epitopes from naive T cells” value is reported as “failed to prime those specific for all 3 HLA-C*12:02-restricted epitopes”. The “mean frequency of NefRF10-specific T cells ± 2 SD” value (stimulated with 3′3′-cGAMP (10 μg/ml) and NefRF10 peptide (10 μM) after Flt3 ligand 24 h, PBMCs from 7 HIV-1-seronegative HLA-A*24:02+ individuals, HLA-A*24:02-NefRF10 tetramer, 10-day culture, SD) is on record as 0.206% ± 0.186%.
